{"source": "patent US20090233931A1", "about": "“THERAPEUTIC COMPOUNDS” (priority 2008, published 2009)", "system": "lashes and adjacent hairs of glaucoma patients", "test": "Eyelash/hair growth observed in glaucoma patients treated in one eye", "assay_type": "in vivo, humans", "conditions": "glaucoma patient treated in one eye only", "excerpt": "In the course of treating patients having glaucoma, treatment may only be appropriate in one eye. […] The lash appearance on the lids of the treated eyes would have appeared quite attractive if it represented a bilateral phenomenon. As a result of its asymmetric nature, the long lashes on one side could be construed as disturbing from a cosmetic standpoint. A systemic examination was preformed as a result of the asymmetric phenomenon. It soon became apparent that this altered appearance was not an isolated finding. […] Definite differences could be identified to varying degrees in the lashes and adjacent hairs of all patients who were taking the drug on a unilateral basis for longer than 6 months.\nThe changes in the lashes were apparent on gross inspection in several patients once attention was focused on the issue. In those with light colored hair and lashes, the differences were only seen easily with the aid of the high magnification and lighting capabilities of the slit lamp biomicroscope. In the course of glaucoma follow-up examination, attention is generally immediately focused on the eye itself. As a result of the high power magnification needed only one eye is seen at a time and the eye is seen at a high enough power that the lashes are not in focus. […]"}
{"smiles": "CCNC(=O)CCC/C=C\\C[C@@H]1[C@@H](/C=C/[C@@H](O)CCc2ccccc2)[C@H](O)C[C@@H]1O", "note": "[bimatoprost]", "values": [{"measurement": "lash appearance in treated eye versus non-treated eye", "result": "longer, thicker, and fuller"}]}
